The assay has as its system BDF1 mice, s.c. Lewis lung carcinoma, T/C %. The assay is described as follows: NCI In Vivo Anticancer Drug Screen. Data for tumor model Lewis Lung Carcinoma (subcutaneous) in B6D2F1 (BDF1) mice. The method in brief:
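Tumor-bearing mice were treated with test compound, and either survival or tumor size was recorded. Values are the treated-group measurement divided by that of the vehicle-treated control group.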

“And” between values parts separate entries of the source, which are not always exact repeats. Identical values can stand only once. Inconclusive results are not listed.

Results on 9 compounds are retold here after PubChem BioAssay AID270 (DTP/NCI, 2004).

In the case of `NCCc1ccc(O)c(O)c1`, the T/C is, setting by setting: (endpoint: median survival time, dose: 37.0 mg/kg/injection, schedule: Q01DX009 (ip), vehicle: saline, higher = longer survival) 119 % of control; (endpoint: median survival time, dose: 75.0 mg/kg/injection, schedule: Q01DX009 (ip), vehicle: saline, higher = longer survival) 109 % of control; (endpoint: median survival time, dose: 150.0 mg/kg/injection, schedule: Q01DX009 (ip), vehicle: saline, higher = longer survival) 88 % of control; (endpoint: median survival time, dose: 600.0 mg/kg/injection, schedule: Q01DX009 (ip), vehicle: saline, higher = longer survival) 107 % of control.

For the compound `FC(F)(F)c1cc(CN(CCCl)CCCl)cc(C(F)(F)F)c1`, the T/C is, setting by setting: (endpoint: median survival time, dose: 12.5 mg/kg/injection, schedule: Q01DX009 (ip), vehicle: Klucel (hydroxypropylcellulose) (HPC), higher = longer survival) 90 % of control; (endpoint: median survival time, dose: 50.0 mg/kg/injection, schedule: Q01DX009 (ip), vehicle: Klucel (hydroxypropylcellulose) (HPC), higher = longer survival) 90 % of control.

Consider `CN(C)CCOC(=O)COc1ccc(Cl)cc1`, for which the T/C (endpoint: median survival time, dose: 200.0 mg/kg/injection, schedule: Q01DX005 (ip), vehicle: saline, higher = longer survival) was 103 % of control and 116 % of control; the T/C (endpoint: median survival time, dose: 300.0 mg/kg/injection, schedule: Q01DX005 (ip), vehicle: saline, higher = longer survival) is 119 % of control.

In the case of `C[C@]12CC[C@@H]3c4ccccc4CC[C@H]3[C@@H]1CC[C@@H]2O`, the T/C by setting is: (endpoint: mean tumor weight, dose: 43.8 mg/kg/injection, schedule: Q01DX011 (sc), vehicle: steriod suspending solution, higher = larger tumour) 71 % of control; (endpoint: mean tumor weight, dose: 87.5 mg/kg/injection, schedule: Q01DX011 (sc), vehicle: steriod suspending solution, higher = larger tumour) 51 % of control; (endpoint: mean tumor weight, dose: 125.0 mg/kg/injection, schedule: Q01DX011 (sc), vehicle: steriod suspending solution, higher = larger tumour) 120 % of control; (endpoint: mean tumor weight, dose: 175.0 mg/kg/injection, schedule: Q01DX011 (sc), vehicle: steriod suspending solution, higher = larger tumour) 56 % of control; (endpoint: mean tumor weight, dose: 250.0 mg/kg/injection, schedule: Q01DX011 (sc), vehicle: steriod suspending solution, higher = larger tumour) 45 % of control and 69 % of control; (endpoint: mean tumor weight, dose: 350.0 mg/kg/injection, schedule: Q01DX011 (sc), vehicle: steriod suspending solution, higher = larger tumour) 32 % of control. Besides, the T/C is 14 % of control (endpoint: mean tumor weight, dose: 400.0 mg/kg/injection, schedule: Q01DX011 (sc), vehicle: steriod suspending solution, higher = larger tumour); 22 % of control (endpoint: mean tumor weight, dose: 600.0 mg/kg/injection, schedule: Q01DX011 (sc), vehicle: steriod suspending solution, higher = larger tumour); 35 % of control and 54 % of control (endpoint: mean tumor weight, dose: 1000.0 mg/kg/injection, schedule: Q01DX011 (sc), vehicle: steriod suspending solution, higher = larger tumour).

For the compound `CS(=O)(=O)OCC(O)C(O)COS(C)(=O)=O` (stereo not drawn), the T/C (endpoint: mean tumor weight, dose: 125.0 mg/kg/injection, schedule: Q01DX011 (ip), vehicle: saline, higher = larger tumour) is 87 % of control; the T/C (endpoint: mean tumor weight, dose: 250.0 mg/kg/injection, schedule: Q01DX011 (ip), vehicle: saline, higher = larger tumour) is 77 % of control; the T/C (endpoint: mean tumor weight, dose: 500.0 mg/kg/injection, schedule: Q01DX011 (ip), vehicle: other, higher = larger tumour) is 75 % of control; the T/C (endpoint: mean tumor weight, dose: 500.0 mg/kg/injection, schedule: Q01DX011 (ip), vehicle: saline, higher = larger tumour) is 59 % of control; the T/C (endpoint: mean tumor weight, dose: 750.0 mg/kg/injection, schedule: Q01DX011 (ip), vehicle: other, higher = larger tumour) was 93 % of control; the T/C (endpoint: mean tumor weight, dose: 1000.0 mg/kg/injection, schedule: Q01DX011 (ip), vehicle: other, higher = larger tumour) is 55 % of control.

As to `CC(C)NC(=O)c1ccc(N/N=[N+](/C)[O-])cc1`, the T/C reads like this: (endpoint: median survival time, dose: 6.25 mg/kg/injection, schedule: Q01DX005 (ip), vehicle: saline with Tween-80, higher = longer survival) 105 % of control; (endpoint: median survival time, dose: 12.5 mg/kg/injection, schedule: Q01DX005 (ip), vehicle: saline with Tween-80, higher = longer survival) 102 % of control; (endpoint: median survival time, dose: 25.0 mg/kg/injection, schedule: Q01DX005 (ip), vehicle: saline with Tween-80, higher = longer survival) 106 % of control; (endpoint: median survival time, dose: 50.0 mg/kg/injection, schedule: Q01DX005 (ip), vehicle: saline with Tween-80, higher = longer survival) 90 % of control and 103 % of control; (endpoint: median survival time, dose: 100.0 mg/kg/injection, schedule: Q01DX005 (ip), vehicle: saline with Tween-80, higher = longer survival) 111 % of control and 112 % of control; (endpoint: median survival time, dose: 200.0 mg/kg/injection, schedule: Q01DX005 (ip), vehicle: saline with Tween-80, higher = longer survival) 110 % of control.

On to `CCCCn1ccnc1C`, for which the T/C is, setting by setting: (endpoint: median survival time, dose: 1.56 mg/kg/injection, schedule: Q01DX009 (ip), vehicle: saline, higher = longer survival) 112 % of control; (endpoint: median survival time, dose: 3.13 mg/kg/injection, schedule: Q01DX009 (ip), vehicle: saline, higher = longer survival) 99 % of control; (endpoint: median survival time, dose: 12.5 mg/kg/injection, schedule: Q01DX009 (ip), vehicle: saline, higher = longer survival) 99 % of control; (endpoint: median survival time, dose: 25.0 mg/kg/injection, schedule: Q01DX009 (ip), vehicle: saline, higher = longer survival) 119 % of control; (endpoint: median survival time, dose: 50.0 mg/kg/injection, schedule: Q01DX009 (ip), vehicle: saline, higher = longer survival) 98 % of control.

With `c1ccc([As+](c2ccccc2)(c2ccccc2)c2ccccc2)cc1`, the T/C is, setting by setting: (endpoint: median survival time, dose: 1.87 mg/kg/injection, schedule: Q01DX009 (ip), vehicle: Klucel (hydroxypropylcellulose) (HPC), higher = longer survival) 97 % of control; (endpoint: median survival time, dose: 3.75 mg/kg/injection, schedule: Q01DX009 (ip), vehicle: Klucel (hydroxypropylcellulose) (HPC), higher = longer survival) 95 % of control.

For the compound `O=[N+]([O-])c1cccc([N+](=O)[O-])c1Cl`, the T/C (endpoint: mean tumor weight, dose: 37.0 mg/kg/injection, schedule: Q01DX011 (ip), vehicle: other, higher = larger tumour) was 116 % of control and the T/C (endpoint: mean tumor weight, dose: 55.0 mg/kg/injection, schedule: Q01DX011 (ip), vehicle: other, higher = larger tumour) is 89 % of control.
